Patent US20190008957A1, “COMBINATION THERAPIES INCLUDING INHIBITORS OF THE EXTRACELLULAR DOMAIN OF E-CADHERIN” (The Research Foundation for The State of New York, priority 2012, published 2019)

Legend:
HER1, HER2, IGF-1R = experiment: Western blot of receptor phosphorylation in skin and oropharyngeal SCC cell lines; assay type: cell-based; conditions: PAM212 cells
Experimental: (§3) After brief sonication, lysates were cleared by centrifugation at 4° C. […] After transfer to nitrocellulose membrane and blocking with 1% BSA, samples were probed with primary antibodies. Western blot images were captured using HP Scanjet G4050 and analyzed relative to G3PDH or actin using NIH Scion Image.
(§4) Antibodies against total HER1 and HER 4 and phosphorylated HER1-4, pPI3K, pAkt, pmTOR, p4E-BP1, pRaptor and pp70S6K obtained from Cell Signaling Technologies. Monoclonal antibodies to HER3 and HER4 were obtained from Thermo Scientific. Polyclonal antibody to the extracellular domain of E-cadherin and monoclonal antibody to α-actin were obtained from Santa Cruz Biotechnology. Monoclonal antibody to the extracellular domain of E-cadherin (DECMA-1) and to His Tag were obtained from Sigma and Abcam, respectively. Monoclonal antibody to G3PDH, ubiquitin and rat IgG1 were obtained from Ambion, Zymed and Southern Biotechnology, respectively.

[1] = system: MEK1/2, ERK1/2, PI3K, Akt, mTOR, p70S6K, 4EBP1; experiment: Western blot of downstream MAPK-PI3K/Akt/mTOR signaling in SCC cell lines; assay type: cell-based
Experimental: as §3, §4

[2] = system: MCF-7, SKBR3 and MDA-MB-231 breast cancer cell lines; experiment: BrdU proliferation in breast cancer cell lines; assay type: cell-based, human
Experimental: (§1) For BrdU staining, cells were incubated with 10 μM BrdU for 2 h prior to fixation and processed for immunofluorescence microscopy as previously described (Brouxhon et al., Cancer Res. 67:7654-64, 2007). For BrdU analyses, cells were counted from 6 low-power fields (×100) per section. BrdU incorporation was also analyzed by a cell proliferation ELISA 5-bromo-2′-deoxyuridine (BrdU) (colorimetric) kit (Roche, Stockholm, Sweden), according to the manufacturer's instructions. Migration and invasion of cells were measured using 8.0 μm pore BD BioCoat Control Insert 24-well plates (no. 354578) and Matrigel Invasion Chamber 24-well Plates (no. 354480), respectively (BD Bioscience). Cells were collected, washed, and 2×10^5 cells were plated in 0.4% FBS medium in the top chamber, with 0-20 μg/mL of rhEcad/Fc in the bottom chamber. After 22 h, cells on the top were removed using a cotton swab. Migrated or invaded cells on the lower surface were fixed with methanol, stained with 0.5% crystal violet, examined by bright field microscopy and photographed. Migration or invasion was quantitated by counting migrated or invaded cells in at least ten random high-power fields per insert and expressed as averages. Results are presented as fold change of the number of migrated/invaded cells to the untreated controls in triplicate experiments.

[3] = system: oropharyngeal FADU and skin SCC (PAM212, CC4A, SCC13 and SCC12b) cell lines; experiment: Proliferation in oropharyngeal and skin SCC cell lines; assay type: cell-based
Experimental: as §1

[4] = system: skin (PAM212, CC4A, SCC12b, SCC13) and oropharyngeal (FADU) cells; experiment: Transwell migration of SCC cells; assay type: cell-based
Experimental: as §1

[5] = system: skin (SCC12b, SCC13, PAM212 and CC4A) and the head & neck FADU cell line; experiment: Matrigel invasion of SCC cells; assay type: cell-based
[6] = system: HER2 overexpressing BT474 cells; conditions: cited from earlier work
survivin = conditions: HER2-positive tumors from patients; cited from earlier work
MMP-2 and MMP-9 = experiment: MMP-9 ELISA and gelatin zymography of conditioned media; assay type: cell-based, mouse; conditions: PAM212 cells; inhibitors either alone or in combination
Experimental: Conditioned media from control or sEcad treated cells were concentrated 10-fold using Centricon devices (Millipore; Bedford, Mass.) according to the manufacturer's instructions and applied to SDS-PAGE gels containing gelatin (0.1% w/v). Gels were washed twice in renaturing buffer (Invitrogen) and incubated at 37° C. for 24 h in developing buffer (Invitrogen). Gels were stained with Coomassie blue and destained with methanol:acetic acid (50:10). Zymogram is representative of triplicate experiments.
Conditioned media from human and mouse cells were analyzed for MMP-9 using human and mouse […] Quantikine ELISA Kits and mouse MMP-9 ELISA kit (R&D Systems, Minneapolis, Minn.), according to the manufacturer's specifications, respectively. For measuring mouse MMP-9, serum-free medium was added to cell cultures and cells were exposed to increasing concentrations of sEcad (rmEcad/Fc; R&D Systems) for 24 hours. The culture media were collected and concentrated using Centrifugal Ultra Filters (Millipore, Billerica, Mass.) and MMP-9 levels were measured by ELISA. Each experiment was performed in triplicate.

HER1-4 [7] = experiment: Immunoprecipitation of sEcad with HER receptors in breast cancer cells; assay type: binding, human
From the text: (§2) The association of sEcad with these RTK was also confirmed by in vitro studies. Specifically, in cell culture systems, extracts from sEcad (rhEcad/Fc:His tagged) treated E-cadherin positive MCF-7 and E-cadherin negative SKBR3 and MDA-MB-231 breast cancer cells were immunoprecipitated with HER1-4-specific antibodies and analyzed by western blotting with a His-tagged-specific antibody. Here, we detected HER1-4-sEcad, HER1-2-sEcad and HER1-sEcad interactions in MCF, SKBR3 and MDA-MB-231 breast cancer cells, respectively. […] Because ligand binding to the HER family of receptors induces the formation of homo- and heterodimers, resulting in phosphorylation on specific tyrosine residues within the cytoplasmic domain (Yarden and Siliwkowski, Nature Reviews. 2:127-137, 2001), we next used western blot assays to examine whether sEcad promotes HER phosphorylation and downstream signaling.
Immunoprecipitation assays were carried out by harvesting tissues or cells with immunoprecipitation lysis buffer (20 mM Tris-HCl, pH 7.5; 137 mM NaCl; 100 mM NaF; 10% glycerol (vol/vol); 1% (vol/vol) Nonidet P-40; 1 mM PMSF and protease inhibitor cocktail (Sigma)). After brief sonication, lysates were cleared by centrifugation at 4° C. […] The immunocomplexes were washed three times, boiled in sample buffer (60 mM Tris-Cl, pH 6.8; 2% SDS (vol/vol); 10% glycerol (vol/vol); 5% […] (vol/vol); and 0.01% bromophenol blue (vol/vol), and loaded on SDS-PAGE for protein analysis. Protein extraction in cells was performed on ice using total protein extraction buffer: 20 mM Tris pH 7.5, 137 mM NaCl, 100 mM NaF, 10% glycerol, 1% NP40, 1 mM PMSF and protease inhibitor cocktail (Sigma). For normal and tumor tissues, sEcad was extracted in an aqueous solution (PBS) and not in the protein extraction buffer. Protein concentration was measured using a BCA Protein Assay Kit (Pierce). […] Western blot images were captured using HP Scanjet G4050 and analyzed relative to G3PDH or actin using NIH Scion Image.

HER1-4 [8] = experiment: Western blot of HER phosphorylation in breast cancer cells; assay type: cell-based, human; conditions: MCF-7 and SKBR3 cells, 26 h after stimulation
From the text: as §2
Immunoprecipitation assays were carried out by harvesting tissues or cells with immunoprecipitation lysis buffer (20 mM Tris-HCl, pH 7.5; 137 mM NaCl; 100 mM NaF; 10% glycerol (vol/vol); 1% (vol/vol) Nonidet P-40; 1 mM PMSF and protease inhibitor cocktail (Sigma)). After brief sonication, lysates were cleared by centrifugation at 4° C. […] Western blot images were captured using HP Scanjet G4050 and analyzed relative to G3PDH or actin using NIH Scion Image. […]

[9] = system: ERK1/2, PI3K/Akt, mTOR, p70S6K, 4EBP1; experiment: Western blot of downstream MAPK-PI3K/Akt/mTOR signaling in breast cancer cell lines; assay type: cell-based, human
From the text: We speculated that this effect may be mediated by molecular abnormalities in signaling pathways that promote cell growth downstream of HERs. Specifically, the lipid kinase phosphoinositide-3-kinase (PI3K) and the protein-serine/threonine kinases Akt, and mTOR signaling pathways are important mediators of HER receptor signaling and are causally involved in breast and other malignancies (Schmelzle and Hall, Cell 103:253-262, 2000). […] As the p70S6 kinase and eIF4E binding protein 1 (4EBP1) are among the most well characterized targets of mTOR (Schmelzle and Hall, Cell 103:253-262, 2000), we next studied the phosphorylation of p70S6K at Thr-389 and 4EBP1 at Thr-37 by western blotting.
Immunoprecipitation assays were carried out by harvesting tissues or cells with immunoprecipitation lysis buffer (20 mM Tris-HCl, pH 7.5; 137 mM NaCl; 100 mM NaF; 10% glycerol (vol/vol); 1% (vol/vol) Nonidet P-40; 1 mM PMSF and protease inhibitor cocktail (Sigma)). After brief sonication, lysates were cleared by centrifugation at 4° C. Supernatants were precleared and incubated with EGFR/HER1, HER2, HER3, HER4 or E-cadherin ectodomain-specific antibodies for 4 h and protein A/G plus agarose beads (Santa Cruz, sc-2003) for 2 h at 4° C. The immunocomplexes were washed three times, boiled in sample buffer (60 mM Tris-Cl, pH 6.8; 2% SDS (vol/vol); 10% glycerol (vol/vol); 5% […] (vol/vol); and 0.01% bromophenol blue (vol/vol), and loaded on SDS-PAGE for protein analysis. Protein extraction in cells was performed on ice using total protein extraction buffer: 20 mM Tris pH 7.5, 137 mM NaCl, 100 mM NaF, 10% glycerol, 1% NP40, 1 mM PMSF and protease inhibitor cocktail (Sigma). For normal and tumor tissues, sEcad was extracted in an aqueous solution (PBS) and not in the protein extraction buffer. Protein concentration was measured using a BCA Protein Assay Kit (Pierce). […] Western blot images were captured using HP Scanjet G4050 and analyzed relative to G3PDH or actin using NIH Scion Image. […]

[10] = system: breast (MCF-7, SKBR3) cells; experiment: Transwell migration of breast cancer cells; assay type: cell-based, human; conditions: MCF-7 cells, 24 h, equimolar concentrations
Experimental: as §1, with “After 22 h, cells on the top were removed using a cotton swab.” left out

[11] = system: MDA-MB-231 and MCF-7 breast cancer cells; experiment: Matrigel invasion of breast cancer cells; assay type: cell-based, human; conditions: MCF-7 cells, 24 h, equimolar concentrations
Experimental: as §1, with “After 22 h, cells on the top were removed using a cotton swab.” left out

[12] = PAM212 skin SCC cells, HER inhibitors
[13] = PAM212 cells, PI3K or MEK inhibitor 20 μM

## CS(=O)(=O)CCNCc1ccc(-c2ccc3ncnc(Nc4ccc(OCc5cccc(F)c5)c(Cl)c4)c3c2)o1 [Lapatinib]
HER1, HER2, IGF-1R
  sEcad-induced HER1 phosphorylation: significantly down-regulated
  sEcad-induced HER2 phosphorylation (pHER2): minimal changes
HER1, HER2, IGF-1R; in the presence of sEcad, compared to corresponding controls
  phospho-IGF-1R levels: did not alter
[1]; PAM212 cells
  sEcad-induced phosphorylation of 4EBP1: minimal changes
  sEcad-induced phosphorylation of ERK1/2, Akt and p70S6K: significantly down-regulated
  sEcad-induced phosphorylation of PI3K: minimal changes
[2]; breast cancer cells, Canertinib 1 μM, Lapatinib 5 μM, Gefitinib 5 μM
  basal and sEcad-induced BrdU incorporation: significantly reduced both basal and sEcad-induced BrdU incorporation
[3]; [12]
  sEcad-induced proliferation: effectively inhibited sEcad-induced proliferation, migration and invasion
[4]; [12]
  sEcad-induced migration: effectively inhibited sEcad-induced proliferation, migration and invasion
[5]; [12]
  sEcad-induced invasion: effectively inhibited sEcad-induced proliferation, migration and invasion
[6]
  apoptosis: induced apoptosis
  survivin expression: markedly reduced survivin expression
survivin
  survivin expression levels in tumors: marked inhibition of survivin expression levels

## COc1cccc(-c2cc(=O)c3ccccc3o2)c1N [PD98059]
[1]; PAM212 cells, inhibitor 20 μM
  Akt phosphorylation by sEcad in the presence of the inhibitor: enhanced
  ERK1/2 phosphorylation: decreased ERK1/2 phosphorylation
[1]; PAM212 cells, inhibitor 20 μM, even in the absence of rmEcad/Fc
  mTOR/p70S6K/4EBP1 phosphorylation: increased
[3]; PAM212 cells, inhibitor 20 μM
  sEcad-induced PAM212 proliferation: less significant effects
[4]; [13]
  sEcad-induced migration: blocked
[5]; [13]
  sEcad-induced invasion: blocked
MMP-2 and MMP-9
  sEcad-induced activation of MMP-2 and MMP-9: significantly inhibited sEcad-induced activation of MMP-2 and MMP-9

## rhEcad/Fc: Recombinant human E-cadherin Fc chimera; extracellular domain residues 155-707 fused to human IgG1 Fc, 6x histidine-tagged
HER1-4 [7]; MCF-7 cells (E-cadherin positive)
  receptors interacting with sEcad: HER1-4-sEcad
HER1-4 [7]; MDA-MB-231 cells (E-cadherin negative)
  receptors interacting with sEcad: HER1-sEcad
HER1-4 [7]; SKBR3 cells (E-cadherin negative)
  receptors interacting with sEcad: HER1-2-sEcad
HER1-4 [8]
  HER1-4 phosphorylation: notably increased
[9]; MCF-7, SKBR3 cells versus untreated controls
  phosphorylated p70S6K (Thr-389) and 4EBP1 (Thr-37) levels: higher
[9]; MCF-7 and SKBR3 cells
  ERK1/2, PI3K/Akt and mTOR activation: activation of ERK1/2, PI3K/Akt and mTOR
[9]; MDA-MB-231 TNBC cells
  Akt activation: activation
[1]; PAM212, CC4A cells versus untreated controls
  phosphorylated p70S6K (Thr-389) and 4EBP1 (Thr-37) levels: higher
[2]; 10 and 20 μg/mL, MCF-7, SKBR3 and MDA-MB-231
  BrdU incorporation: significantly increased
[2]; MCF-7 cells, 24 h, equimolar concentrations
  proliferation: significantly increased proliferation, migration and invasion
[10]
  migration: significantly increased proliferation, migration and invasion
[11]
  invasion: significantly increased proliferation, migration and invasion
